Results from patent US5089623A, “Certain imidate insecticides” (Imperial Chemical Industries Plc, priority 1990, dated 1992).

Columns and labels:
Assay type in all cases: in vivo
[1] = test system: Maize weevil [Sitophilus Zeamais (Motschulsky)]; assay: Maize weevil test (MW); settings: adult weevils, treated corn seeds, 48 hours, percent in solution
Procedure: The compounds in Tables 1 and 2 above were tested for insecticidal activity using the following testing procedures. LC50 values, based on the results of these tests and calculated according to dosage-mortality curves, are expressed in Table 3.
Maize weevil [Sitophilus Zeamais (Motschulsky)]
Test compounds were diluted in a 50:50 acetone:water solution. Four corn seeds [Zea mays (L.)] which had been immersed in test solutions for 2-3 seconds and allowed to dry were placed in containers together with 10 adult weevils. The containers were covered and kept at a temperature of about 25° C. Mortality was recorded after 48 hours. Test concentrations ranged from 0.01% down to that at which 50% mortalilty occurred. The LC50 values are expressed below in Table 3 under the heading "MW" in terms of percent of the test compound in solution.

[2] = test system: Tobacco Budworm [Heliothis virescens (Fabricius)] eggs; assay: Tobacco budworm egg test (TBW-E); settings: percent in solution
[3] = test system: Cabbage Looper [Trichoplusia ni (Hubner)]; assay: Cabbage looper test (CL); settings: second-instar larvae, 3-5 days, percent in solution
[4] = test system: Housefly [Musca domestica]; assay: Housefly insecticidal test (HF); settings: per 25 female houseflies, 48 hours

| SMILES | LC50 MW [1] | LC50 TBW E [2] | LC50 CL [3] | LC50 HF [4] |
| --- | --- | --- | --- | --- |
| CC(C)C(=Nc1cccc(Cl)c1)OCc1ccc(F)c(Oc2ccc(Cl)cc2)c1 [Compound 390] | > 0.01% | 0.045% | 0.0021% | < 100 µg |
| CC(C)C(=Nc1ccc(C#N)cc1)OCc1ccc(F)c(Oc2ccc(Cl)cc2)c1 [Compound 392] | > 0.01% | 0.039% | 0.00034% | < 100 µg |
| CC(C)C(=Nc1ccc(C#N)cc1)OCc1cccc(Oc2ccc(Cl)cc2)c1 [Compound 393] | > 0.01% | > 0.1% | 0.00037% | < 100 µg |
| CC(C)C(=Nc1ccc(C#N)cc1)OCc1ccc(F)c(Oc2ccc(F)cc2)c1 [Compound 394] | > 0.01% | 0.05% | 0.00025% | < 100 µg |
| CC(C)C(=Nc1ccc(F)c(Cl)c1F)OCc1ccc(F)c(Oc2ccc(Cl)cc2)c1 [Compound 395] | 0.004% | 0.018% | < 0.1% | 8.6 µg |
| Cc1cc(N=C(OCc2ccc(F)c(Oc3ccc(F)cc3)c2)C(C)C)ccc1F [Compound 396] | > 0.01% | < 0.1% | 0.0017% | < 100 µg |
| Cc1cc(N=C(OCc2cccc(Oc3ccc(Cl)cc3)c2)C(C)C)ccc1F [Compound 397] | > 0.01% | < 0.1% | 0.0019% | < 100 µg |
| CC(C)C(=Nc1ccc(F)c(Br)c1)OCc1cccc(Oc2ccc(Cl)cc2)c1 [Compound 398] | > 0.01% | < 0.1% | < 0.1% | < 100 µg |
| Cc1cc(N=C(OCc2ccc(F)c(Oc3ccc(Cl)cc3)c2)C(C)C)ccc1F [Compound 399] | > 0.01% | 0.025% | 0.0012% | < 100 µg |
| Cc1cc(N=C(OCc2ccc(F)c(Oc3ccccc3)c2)C(C)C)ccc1F [Compound 400] | > 0.01% | 0.025% | 0.0007% | < 100 µg |
| Cc1cccc(N=C(OCc2ccc(F)c(Oc3ccc(Cl)cc3)c2)C(C)C)c1 [Compound 401] | > 0.01% | 0.04% | 0.0017% | < 100 µg |
| Cc1ccc(N=C(OCc2cccc(Oc3ccc(F)cc3)c2)C(C)C)cc1Cl [Compound 402] | > 0.01% | > 0.1% | > 0.1% | < 100 µg |
| Cc1ccc(N=C(OCc2cccc(Oc3ccc(Cl)cc3)c2)C(C)C)cc1Cl [Compound 403] | > 0.01% | > 0.1% | > 0.1% | < 100 µg |
| Cc1ccc(N=C(OCc2ccc(F)c(Oc3ccc(Cl)cc3)c2)C(C)C)cc1Cl [Compound 404] | > 0.01% | 0.025% | > 0.1% | < 100 µg |
| Cc1cccc(N=C(OCc2cccc(Oc3ccc(F)cc3)c2)C(C)C)c1 [Compound 405] | > 0.01% | > 0.1% | > 0.1% | < 100 µg |
| Cc1ccc(N=C(OCc2ccc(F)c(Oc3ccc(Cl)cc3)c2)C(C)C)cc1C [Compound 406] | > 0.01% | < 0.1% | > 0.1% | < 100 µg |
| Cc1cc(N=C(OCc2ccc(F)c(Oc3ccc(Cl)cc3)c2)C(C)C)ccc1Br [Compound 407] | > 0.01% | 0.05% | > 0.1% | > 100 µg |
| COc1ccc(N=C(OCc2ccc(F)c(Oc3ccc(F)cc3)c2)C(C)C)cc1Cl [Compound 408] | > 0.01% | 0.02% | 0.0015% | < 100 µg |
| COc1ccc(N=C(OCc2ccc(F)c(Oc3ccccc3)c2)C(C)C)cc1Cl [Compound 409] | > 0.01% | 0.025% | 0.0017% | < 100 µg |
| COc1ccc(N=C(OCc2ccc(F)c(Oc3ccc(Cl)cc3)c2)C(C)C)cc1Cl [Compound 410] | > 0.01% | > 0.1% | > 0.1% | < 100 µg |
| CCc1ccccc1N=C(OCc1cccc(Oc2ccc(F)cc2)c1)C(C)C [Compound 411] | > 0.01% | > 0.1% | > 0.1% | < 100 µg |

| SMILES | LC50 MW [1] | LC50 TBW E [2] | LC50 CL [3] | LC50 HF [4] |
| --- | --- | --- | --- | --- |
| COc1ccc(N=C(OCc2ccc(F)c(Oc3ccc(Cl)cc3)c2)C(C)C)cc1 [Compound 412] | > 0.01% | > 0.1% | > 0.1% | < 100 µg |
| CC(C)C(=Nc1ccc(F)c(I)c1)OCc1cccc(Oc2ccc(Cl)cc2)c1 [Compound 413] | > 0.01% | 0.04% | 0.0007% | < 100 µg |
| CC(C)C(=Nc1ccc(S(C)(=O)=O)cc1)OCc1ccc(F)c(Oc2ccc(F)cc2)c1 [Compound 414] | > 0.01% | > 0.1% | 0.0024% | < 100 µg |
| C=C(C)C(=Nc1ccc(F)c(Cl)c1)OCc1ccc(F)c(Oc2ccc(Cl)cc2)c1 [Compound 415] | > 0.01% | 0.035% | 0.00075% | < 100 µg |
| C=C(C)C(=Nc1ccc(F)c(Cl)c1)OCc1ccc(F)c(Oc2ccccc2)c1 [Compound 416] | > 0.01% | 0.018% | 0.00027% | < 100 µg |
| C=C(C)C(=Nc1ccc(F)c(Cl)c1)OCc1cccc(Oc2ccccc2)c1 [Compound 417] | < 0.01% | 0.04% | 0.0008% | < 100 µg |
| CC(C)C(=Nc1ccc(OC(F)(F)C(F)Cl)cc1)OCc1cccc(Oc2ccccc2)c1 (centres unmarked) [Compound 418] | > 0.01% | > 0.1% | > 0.1% | > 100 µg |
| CC(C)C(=Nc1ccc(OC(F)(F)C(F)Cl)cc1)OCc1ccc(F)c(Oc2ccccc2)c1 (centres unmarked) [Compound 419] | > 0.01% | > 0.1% | > 0.1% | > 100 µg |
| CC(C)C(=Nc1ccc(OCC(F)(F)F)c(Cl)c1)OCc1cccc(Oc2ccc(F)cc2)c1 [Compound 420] | > 0.01% | 0.05% | 0.00075% | > 100 µg |
| CC(C)C(=Nc1ccc(OCC(F)(F)F)c(Cl)c1)OCc1cccc(Oc2ccc(Cl)cc2)c1 [Compound 421] | > 0.01% | < 0.1% | 0.002% | > 100 µg |
| CC(C)C(=Nc1ccc(OCC(F)(F)F)cc1)OCc1ccc(F)c(Oc2ccccc2)c1 [Compound 422] | > 0.01% | 0.05% | 0.00075% | < 100 µg |
| CC(C)C(=Nc1ccc(OCC(F)(F)F)cc1)OCc1cccc(Oc2ccccc2)c1 [Compound 423] | > 0.01% | > 0.1% | 0.002% | > 100 µg |
| CC(C)C(=Nc1ccc(OCC(F)(F)F)c(Cl)c1)OCc1ccc(F)c(Oc2ccccc2)c1 [Compound 424] | > 0.01% | 0.035% | 0.00038% | > 100 µg |
| CC(C)C(=Nc1ccc(OCC(F)(F)F)c(Cl)c1)OCc1cccc(Oc2ccccc2)c1 [Compound 425] | > 0.01% | > 0.1% | 0.00075% | > 100 µg |
| CCOc1cccc(N=C(OCc2ccc(F)c(Oc3ccc(F)cc3)c2)C(C)C)c1 [Compound 426] | > 0.01% | > 0.1% | 0.002% | > 100 µg |
| CC(C)C(=Nc1ccc(C(F)(F)F)cc1Cl)OCc1cccc(Oc2ccc(F)cc2)c1 [Compound 427] | > 0.01% | > 0.1% | < 0.1% | > 100 µg |
| CC(C)C(=Nc1ccc(C(F)(F)F)cc1Cl)OCc1ccc(F)c(Oc2ccccc2)c1 [Compound 428] | > 0.01% | > 0.1% | 0.0017% | > 100 µg |
| CC(C)C(=Nc1ccc(OCC(F)(F)F)c(F)c1)OCc1cccc(Oc2ccc(Cl)cc2)c1 [Compound 429] | > 0.01% | < 0.1% | 0.0017% | > 100 µg |
| C=C(C)C(=Nc1ccc(C(F)(F)F)cc1)OCc1cccc(Oc2ccccc2)c1 [Compound 430] | 0.004% | 0.032% | 0.001% | < 100 µg |
| CC(C)C(=Nc1ccc(C(F)(F)F)c(Br)c1)OCc1ccc(F)c(Oc2ccccc2)c1 [Compound 434] | 0.009% | > 0.1% | 0.0017% | < 100 µg |
